Laboratory results taken from patent publication US20240150377A1, “MODULATORS OF CYSTIC FIBROSIS TRANSMEMBRANE CONDUCTANCE REGULATOR” (VERTEX PHARMACEUTICALS INCORPORATED, priority 2020, published 2024).
Read-outs that look alike come from different tables or passages of the source. Blank lines part the entries; values can stand above or below the compound they belong to.

Target: T1, CFTR (Homo sapiens, UniProt P13569, DEL508-508)
T1 construct: endogenous in cells; host or cells: primary human bronchial epithelial cells from CF subjects (F508del/MF-HBE), differentiated at air-liquid interface
Experiment: HBE assay: Ussing chamber assay of CFTR-mediated short-circuit currents
Type: cell-based
Experimental: 1. Ussing Chamber Assay of CFTR-Mediated Short-Circuit Currents
(§1) Ussing chamber experiments were performed using human bronchial epithelial (HBE) cells derived from CF subjects heterozygous for F508del and a minimal function CFTR mutation (F508del/MF-HBE) and cultured as previously described (Neuberger T, Burton B, Clark H, Van Goor F Methods Mol Biol 2011:741:39-54). After four days the apical media was removed, and the cells were grown at an air liquid interface for >14 days prior to use.
(§2) To isolate the CFTR-mediated short-circuit (ISC) current, F508del/MF-HBE grown on Costar® Snapwell™ cell culture inserts were mounted in an Ussing chamber and the transepithelial ISC was measured under voltage-clamp recording conditions (Vhold=0 mV) at 37° C. The basolateral solution contained (in mM) 145 NaCl, 0.83 K2HPO4, 3.3 KH2PO4, 1.2 MgCl2, 1.2 CaCl2), 10 Glucose, 10 HEPES (pH adjusted to 7.4 with NaOH) and the apical solution contained (in mM) 145 NaGluconate, 1.2 MgCl2, 1.2 CaCl2), 10 glucose, 10 HEPES (pH adjusted to 7.4 with NaOH) and 30 μM amiloride to block the epithelial sodium channel. Forskolin (20 μM) was added to the apical surface to activate CFTR, followed by apical addition of a CFTR inhibitor cocktail consisting of BPO, GlyH-101, and CFTR inhibitor 172 (each at 20 μM final assay concentration) to specifically isolate CFTR currents. The CFTR-mediated ISC (μA/cm^2) for each condition was determined from the peak forskolin response to the steady-state current following inhibition.
2. Identification of Corrector Compounds
The activity of the CFTR corrector compounds on the CFTR-mediated ISC was determined in Ussing chamber studies as described above. The F508del/MF-HBE cell cultures were either incubated with the corrector compounds at a range of concentrations in combination with 1 μM Ivacaftor or were incubated with the corrector compounds at a single fixed concentration of 10 μM in combination with 1 μM Ivacaftor for 18-24 hours at 37° C. and in the presence of 20% human serum. The concentration of corrector compounds with 1 μM Ivacaftor during the 18-24 hours incubations was kept constant throughout the Ussing chamber measurement of the CFTR-mediated ISC to ensure compounds were present throughout the entire experiment.
Ussing Chamber Assay of CFTR-mediated short-circuit currents
as §1, with “(HIBE)” for “(HBE)”, “(F508del/MIF-HIBE)” for “(F508del/MF-HBE)”
as §2, with “KH2PO4,” for “K2HPO4,”
Identification of Corrector Compounds

[1] = HBE assay, read-out: HBE Max activity (%)
[2] = Table 10, read-out: HBE Max activity (%)
[3] = Table 13, at 10 μM, read-out: HBE Activity at 10 μM (%)
[4] = Table 12, read-out: HBE Max Activity (%)
[5] = Table 13, read-out: HBE Max Activity (%)
[6] = HBE assay, 10 μM, read-out: HBE Activity at 10 μM (%)
[7] = Table 11, read-out: HBE Max Activity (%)

T1 sequence (P13569 with tags, fused parts or gaps DEL508-508): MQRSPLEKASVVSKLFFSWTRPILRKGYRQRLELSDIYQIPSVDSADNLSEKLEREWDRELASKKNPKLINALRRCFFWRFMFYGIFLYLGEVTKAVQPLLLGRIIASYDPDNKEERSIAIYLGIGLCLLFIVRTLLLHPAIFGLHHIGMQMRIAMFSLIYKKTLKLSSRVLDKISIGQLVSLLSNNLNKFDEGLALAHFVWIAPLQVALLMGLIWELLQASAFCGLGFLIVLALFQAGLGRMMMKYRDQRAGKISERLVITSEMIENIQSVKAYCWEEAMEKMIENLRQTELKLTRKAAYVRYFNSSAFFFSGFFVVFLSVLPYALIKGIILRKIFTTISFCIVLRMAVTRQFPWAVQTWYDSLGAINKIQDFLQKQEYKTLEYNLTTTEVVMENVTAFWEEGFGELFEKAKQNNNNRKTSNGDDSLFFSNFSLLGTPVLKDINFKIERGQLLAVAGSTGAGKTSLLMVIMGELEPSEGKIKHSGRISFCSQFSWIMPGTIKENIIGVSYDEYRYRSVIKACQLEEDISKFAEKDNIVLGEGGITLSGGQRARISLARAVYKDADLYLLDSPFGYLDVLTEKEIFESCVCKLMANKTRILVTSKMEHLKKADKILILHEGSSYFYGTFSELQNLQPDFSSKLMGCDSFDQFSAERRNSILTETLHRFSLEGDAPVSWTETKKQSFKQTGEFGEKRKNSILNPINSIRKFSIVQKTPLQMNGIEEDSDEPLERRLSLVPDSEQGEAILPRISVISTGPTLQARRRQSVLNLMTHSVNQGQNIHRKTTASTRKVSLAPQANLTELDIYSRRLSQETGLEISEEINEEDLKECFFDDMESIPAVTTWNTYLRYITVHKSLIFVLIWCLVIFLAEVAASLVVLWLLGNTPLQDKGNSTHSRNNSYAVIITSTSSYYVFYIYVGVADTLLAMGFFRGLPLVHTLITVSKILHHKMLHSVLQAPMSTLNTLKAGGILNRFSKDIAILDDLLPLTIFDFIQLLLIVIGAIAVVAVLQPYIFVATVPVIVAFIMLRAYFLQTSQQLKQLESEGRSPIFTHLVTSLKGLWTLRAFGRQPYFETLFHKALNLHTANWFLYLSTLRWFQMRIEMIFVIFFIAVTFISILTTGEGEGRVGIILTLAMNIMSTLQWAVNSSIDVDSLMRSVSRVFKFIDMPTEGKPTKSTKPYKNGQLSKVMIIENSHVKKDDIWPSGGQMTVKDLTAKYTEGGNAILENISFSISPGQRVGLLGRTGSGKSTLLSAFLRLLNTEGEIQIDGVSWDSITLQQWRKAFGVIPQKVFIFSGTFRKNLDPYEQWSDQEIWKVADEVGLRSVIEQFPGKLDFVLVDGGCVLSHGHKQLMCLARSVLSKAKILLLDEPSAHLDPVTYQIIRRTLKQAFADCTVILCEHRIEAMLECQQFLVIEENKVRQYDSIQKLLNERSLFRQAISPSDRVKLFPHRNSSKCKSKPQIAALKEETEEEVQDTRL

Structure (SMILES): CO[C@H]1C[C@@H](Oc2cnc(CN3C(=O)c4cccc(c4)S(=O)(=O)Nc4nc(cc(-c5c(C)cccc5C)n4)OC[C@H]3CC(C)(C)C)nc2)C1 [Compound 1369]
EC50 (HBE assay, read-out: HBE EC50): < 1 µM | Emax [1]: > 60%

Structure (SMILES): Cc1cccc(C)c1-c1cc2nc(n1)NS(=O)(=O)c1cccc(c1)C(=O)N(Cc1ncc(OCC3(C)COC3)cn1)[C@H](CC(C)(C)C)CO2 [Compound 1360]
EC50 (HBE assay, read-out: HBE EC50): < 1 µM | Emax [1]: > 60%

Structure (SMILES): Cc1cccc(C)c1-c1cc2nc(n1)NS(=O)(=O)c1cccc(c1)C(=O)N(CC(=O)N(C)C1CCC(C)(C)CC1)[C@H](CC(C)(C)C)CO2 [Compound 172]
activation at 10 µM [3]: > 600%

Structure (SMILES): Cc1cccc(C)c1-c1cc2nc(n1)NS(=O)(=O)c1cccc(c1)C(=O)N(Cc1ncc(N3C4CCC3CC4)cn1)[C@H](CC(C)(C)C)CO2 [Compound 554]
EC50 (HBE EC50 (μM), Table 12): < 1 µM | Emax [4]: > 60%

Structure (SMILES): COc1c(F)cc(CN2C(=O)c3cccc(c3)S(=O)(=O)Nc3nc(cc(-c4c(C)cccc4C)n3)OC[C@H]2CC(C)(C)C)cc1F [Compound 769]
activation at 10 µM (Table 10, at 10 μM, read-out: HBE activity at 10 (μM) (%)): > 60%

Structure (SMILES): Cc1cccc(C)c1-c1cc2nc(n1)NS(=O)(=O)c1cccc(c1)C(=O)N(C[C@H]1CC[C@@H](O)CC1)[C@H](CC(C)(C)C)CO2 (single isomer, unassigned) [Compound 151]
EC50 (Table 10, read-out: HBE EC50): < 1 µM | Emax [2]: > 60%

Structure (SMILES): Cc1cccc(C)c1-c1cc2nc(n1)NS(=O)(=O)c1cccc(c1)C(=O)N(Cc1nccc(N(C)C(C)C)n1)[C@H](CC(C)(C)C)CO2 [Compound 123, (11R)-6-(2,6-Dimethylphenyl)-11-(2,2-dimethylpropyl)-12-[[4-[isopropyl(methyl)amino]pyrimidin-2-yl]methyl]-2,2-dioxo-9-oxa-2λ^6-thia-3,5,12,19-tetrazatricyclo[12.3.1.14,8]nonadeca-1(18),4(19),5,7,14,16-hexaen-13-one]
EC50 (Table 11, read-out: HBE EC50): < 1 µM | Emax [7]: > 60%

Structure (SMILES): Cc1cccc(C)c1-c1cc2nc(n1)NS(=O)(=O)c1cccc(c1)C(=O)N(Cc1ccc(OCC(C)(C)C)cn1)[C@H](CC(C)(C)C)CO2 [Compound 768]
EC50 (Table 10, read-out: HBE EC50): 1 to 3 µM | Emax [2]: > 60%

Structure (SMILES): CCN(C)c1ccnc(CN2C(=O)c3cccc(c3)S(=O)(=O)Nc3nc(cc(-c4c(C)cccc4C)n3)OC[C@H]2CC(C)(C)C)n1 [Compound 1357]
EC50 (HBE assay, read-out: HBE EC50): < 1 µM | Emax [1]: > 60%

Structure (SMILES): Cc1cccc(C)c1-c1cc2nc(n1)NS(=O)(=O)c1cccc(n1)C(=O)N(Cc1ccc(N(C)CC(C)(C)C)cn1)[C@H](CC(C)(C)C)CO2 [Compound 1125]
EC50 (Table 13, read-out: HBE EC50): 1 to 3 µM | Emax [5]: > 60%

Structure (SMILES): CCOc1cnc(CN2C(=O)c3cccc(c3)S(=O)(=O)Nc3nc(cc(-c4c(C)cccc4C)n3)OC[C@H]2CC2(C)CC2)nc1 [Compound 1524]
activation at 10 µM [6]: > 60%

Structure (SMILES): Cc1cccc(C)c1-c1cc2nc(n1)NS(=O)(=O)c1cccc(c1)C(=O)N(Cc1ccc(-c3cnc(O)nc3)cc1)[C@H](CC(C)(C)C)CO2 [Compound 145, (11R)-6-(2,6-dimethylphenyl)-11-(2,2-dimethylpropyl)-12-[[4-(2-hydroxypyrimidin-5-yl)phenyl]methyl]-2,2-dioxo-9-oxa-2λ^6-thia-3,5,12,19-tetrazatricyclo[12.3.1.14,8]nonadeca-1(18),4(19),5,7,14,16-hexaen-13-one]
EC50 (Table 10, read-out: HBE EC50): 1 to 3 µM | Emax [2]: > 60%

Structure (SMILES): Cc1cccc(C)c1-c1cc2nc(n1)NS(=O)(=O)c1cccc(c1)C(=O)N(Cc1ncc(OC(C)C)c(C)n1)[C@H](CC(C)(C)C)CO2 [Compound 610]
EC50 (Table 11, read-out: HBE EC50): < 1 µM | Emax [7]: > 60%

Structure (SMILES): Cc1cccc(C)c1-c1cc2nc(n1)NS(=O)(=O)c1cccc(c1)C(=O)N(CC(=O)N1C[C@@H](C)O[C@@H](C)C1)[C@H](CC(C)(C)C)CO2 [Compound 199]
activation at 10 µM [3]: > 600%

Next, values leading:

EC50 (Table 10, read-out: HBE EC50): < 1 µM | Emax [2]: > 60%
Structure (SMILES): Cc1cccc(C)c1-c1cc2nc(n1)NS(=O)(=O)c1cccc(c1)C(=O)N(Cc1ccc(-c3cn[nH]c3)cn1)[C@H](CC(C)(C)C)CO2 [Compound 299]

activation at 10 µM (Table 12, at 10 μM, read-out: HBE Activity at 10 μM (%)): > 600%
Structure (SMILES): Cc1cccc(C)c1-c1cc2nc(n1)NS(=O)(=O)c1cccc(c1)C(=O)N(Cc1ccc(C3CCCCC3)nn1)[C@H](CC(C)(C)C)CO2 [Compound 233]

EC50 (Table 12, read-out: HBE EC50): < 1 µM | Emax [4]: > 60%
Structure (SMILES): Cc1cccc(C)c1-c1cc2nc(n1)NS(=O)(=O)c1cccc(c1)C(=O)N(Cc1cccc(C(C)C(C)C)n1)[C@H](CC(C)(C)C)CO2 (some centres unmarked) [Compound 871]

EC50 (Table 13, read-out: HBE EC50): 1 to 3 µM | Emax [5]: > 60%
Structure (SMILES): Cc1cccc(C)c1-c1cc2nc(n1)NS(=O)(=O)c1cccc(c1)C(=O)N(Cc1ccc([C@@H](O)CO)cn1)[C@H](CC(C)(C)C)CO2 [Compound 1151]

activation at 10 µM [3]: > 600%
Structure (SMILES): Cc1cccc(C)c1-c1cc2nc(n1)NS(=O)(=O)c1cccc(c1)C(=O)N(Cc1cccc(N3CCCC3C(C)(C)O)n1)[C@H](CC(C)(C)C)CO2 (some centres unmarked) [Compound 1123]

EC50 (Table 13, read-out: HBE EC50): < 1 µM | Emax [5]: > 60%
Structure (SMILES): Cc1cccc(C)c1-c1cc2nc(n1)NS(=O)(=O)c1cccc(c1)C(=O)N(Cc1ccc(N3CC4(COC4)C3)cn1)[C@H](CC(C)(C)C)CO2 [Compound 1063]

activation at 10 µM [6]: > 60%
Structure (SMILES): Cc1cccc(C)c1-c1cc2nc(n1)NS(=O)(=O)c1cccc(c1)C(=O)N(Cc1cncc(N3CC[C@@H]4CCC[C@@H]43)n1)[C@H](CC(C)(C)C)CO2 [Compound 1542]

EC50 (Table 10, read-out: HBE EC50): < 1 µM | Emax [2]: > 60%
Structure (SMILES): Cc1cccc(C)c1-c1cc2nc(n1)NS(=O)(=O)c1cccc(c1)C(=O)N(Cc1cnccc1N1CCOCC1)[C@H](CC(C)(C)C)CO2 [Compound 376]

EC50 (Table 13, read-out: HBE EC50): < 1 µM | Emax [5]: > 60%
Structure (SMILES): Cc1cccc(C)c1-c1cc2nc(n1)NS(=O)(=O)c1cccc(c1)C(=O)N(Cc1ccc(C3CC4(C3)CC(C)(C)C4)cn1)[C@H](CC(C)(C)C)CO2 [Compound 157, (11R)-6-(2,6-Dimethylphenyl)-11-(2,2-dimethylpropyl)-12-[[5-(2,2-dimethylspiro[3.3]heptan-6-yl)-2-pyridyl]methyl]-2,2-dioxo-9-oxa-2λ6-thia-3,5,12,19-tetrazatricyclo[12.3.1.14,8]nonadeca-1(18),4(19),5,7,14,16-hexaen-13-one]

EC50 (HBE assay, read-out: HBE EC50): < 1 µM | Emax [1]: > 60%
Structure (SMILES): Cc1cccc(C)c1-c1cc2nc(n1)NS(=O)(=O)c1cccc(c1)C(=O)N(Cc1cccc(NC3CCOCC3)n1)[C@H](CC(C)(C)C)CO2 [Compound 1419]

EC50 (HBE assay, read-out: HBE EC50): < 1 µM | Emax [1]: > 60%
Structure (SMILES): Cc1cccc(C)c1-c1cc2nc(n1)NS(=O)(=O)c1cccc(c1)C(=O)N(Cc1cccc(N3CCOC[C@@H]3C)n1)[C@H](CC(C)(C)C)CO2 (stereo in doubt) [Compound 1400]

EC50 (Table 11, read-out: HBE EC50): < 1 µM | Emax [7]: > 60%
Structure (SMILES): CCOc1cccnc1CN1C(=O)c2cccc(c2)S(=O)(=O)Nc2nc(cc(-c3c(C)cccc3C)n2)OC[C@H]1CC(C)(C)C [Compound 742]

activation at 10 µM [3]: > 600%
Structure (SMILES): Cc1cccc(C)c1-c1cc2nc(n1)NS(=O)(=O)c1cccc(c1)C(=O)N(Cc1ccc(N3CC4(CCOC4)C3)cn1)[C@H](CC(C)(C)C)CO2 [Compound 1055]

Emax [2]: > 60%
Structure (SMILES): Cc1cccc(C)c1-c1cc2nc(n1)NS(=O)(=O)c1cccc(c1)C(=O)N(Cc1ccn(C(C)C)n1)[C@H](CC(C)(C)C)CO2 [Compound 480]
